How the values were obtained:
[1] = system: windgrass; test: Test Example 4: herbicidal effect by soil treatment (Table 19, symbol L); assay type: in vivo, windgrass (Apera spica-venti); details: 320 g/ha
How it was run: (§1)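 Seeds were sown in sterilized diluvial soil and covered with about 1.5 cm of soil. An emulsion formulation diluted with water to a predetermined herbicide amount was sprayed evenly onto the soil surface. Plants grew in a greenhouse at 25° C. to 30° C., and the effect was scored three weeks after application using criteria from an earlier test.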

[2] = system: oval-leafed pondweed; test: Test Example 1: herbicidal activity, application before weed generation under submerged conditions (Table 16, symbol C); assay type: in vivo, oval-leafed pondweed (Monochoria vaginalis); details: 320 g/ha applied herbicide
How it was run: (§2)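 Submerged Wagner pots (alluvial soil, 4 cm water) sown with weed seeds and planted with 2.5-leaf rice seedlings; emulsifiable concentrate diluted in water applied to water surface on sowing day. Held in greenhouse at 25-30 °C; injury scored 0-5 by herbicidal rate after three weeks.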

[3] = system: green foxtail; test: Test Example 5: herbicidal effect by foliage application, plastic box (Table 20, symbol G); assay type: in vivo, green foxtail (Setaria viridis); details: foliage application, 320 g/ha, 3 weeks after application
How it was run: (§3)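 Plants sown in sterilized diluvial soil and grown 14 days in a greenhouse at 25° C to 30° C, then sprayed on the foliage with the compound's emulsion diluted in water to a predetermined herbicide amount. Injury to weeds and crops scored three weeks after application on a visual rating scale.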

[4] = system: barnyard grass; test: Test Example 5: herbicidal effect by foliage application, plastic box (Table 20, symbol H); assay type: in vivo, barnyard grass (Echinochloa crus-galli); details: foliage application, 320 g/ha, 3 weeks after application
How it was run: as §3

[5] = system: persian speedwell; test: Test Example 4: herbicidal effect by soil treatment (Table 19, symbol R); assay type: in vivo, Persian speedwell (Veronica persica); details: 320 g/ha
How it was run: as §1

[6] = system: Italian ryegrass; test: Test Example 4: herbicidal effect by soil treatment (Table 19, symbol K); assay type: in vivo, Italian ryegrass (Lolium multiflorum); details: 320 g/ha
How it was run: as §1

[7] = system: southern crabgrass; test: Test Example 5: herbicidal effect by foliage application, plastic box (Table 20, symbol F); assay type: in vivo, southern crabgrass (Digitaria ciliaris); details: foliage application, 320 g/ha, 3 weeks after application
How it was run: as §3

[8] = system: Japanese bulrush; test: Test Example 2: herbicidal activity, application during weed generation under submerged conditions (Table 17, symbol B); assay type: in vivo, Japanese bulrush (Schoenoplectus juncoides); details: AAH 320 g/ha; application during weed generation, submerged conditions
How it was run: (§4)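 Effect on each weed is rated three weeks post-treatment, using the same scoring criteria as the preceding test. Plants grow from mixed-sown seed in flooded alluvial soil (4 cm water) at 25° C. to 30° C., and are treated at one to two leaves with diluted emulsion dropped onto the water.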

[9] = system: oval-leafed pondweed; test: Test Example 2: herbicidal activity, application during weed generation under submerged conditions (Table 17, symbol C); assay type: in vivo, oval-leafed pondweed (Monochoria vaginalis); details: AAH 320 g/ha; application during weed generation, submerged conditions
How it was run: as §4

[10] = system: wild oat; test: Test Example 4: herbicidal effect by soil treatment (Table 19, symbol I); assay type: in vivo, wild oat (Avena fatua); details: 320 g/ha
How it was run: as §1

[11] = system: rice flat sedge; test: Test Example 3: herbicidal effect by foliage application, Wagner pot (Table 18, symbol E); assay type: in vivo, rice flat sedge (Cyperus iria); details: 320 g/ha
How it was run: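 Plants were sown in alluvial soil held under 0.1–0.5 cm standing water and grown 14 days in a greenhouse at 25–30 °C. An emulsifiable formulation, water-diluted to the set dose, was then sprayed onto the foliage, and effects were scored three weeks later using previously defined criteria.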

[12] = system: persian speedwell; test: Test Example 5: herbicidal effect by foliage application, plastic box (Table 20, symbol R); assay type: in vivo, Persian speedwell (Veronica persica); details: foliage application, 320 g/ha, 3 weeks after application
How it was run: as §3

[13] = system: late watergrass; test: Test Example 1: herbicidal activity, application before weed generation under submerged conditions (Table 16, symbol A); assay type: in vivo, late watergrass (Echinochloa oryzicola); details: 320 g/ha applied herbicide
How it was run: as §2

[14] = system: velvetleaf; test: Test Example 5: herbicidal effect by foliage application, plastic box (Table 20, symbol M); assay type: in vivo, velvetleaf (Abutilon theophrasti); details: foliage application, 320 g/ha, 3 weeks after application
How it was run: as §3

SMILES | herbicidal effect rating, L: windgrass [1] | Herbicidal effect on C: oval-leafed pondweed (grade 0-5) [2] | effect on green foxtail (G) [3] | effect on barnyard grass (H) [4] | herbicidal effect rating, R: persian speedwell [5] | herbicidal effect rating, K: Italian ryegrass [6] | effect on southern crabgrass (F) [7] | herbicidal effect rating, B: Japanese bulrush [8] | herbicidal effect rating, C: oval-leafed pondweed [9] | herbicidal effect rating, I: wild oat [10] | herbicidal effect on E (rice flat sedge), rating 0-5 [11] | effect on persian speedwell (R) [12] | Herbicidal effect on A: late watergrass (grade 0-5) [13] | effect on velvetleaf (M) [14]
CCCC(=O)Oc1c(C)nn(C)c(=O)c1-c1c(-c2ccc(Cl)cc2)sc2ccc(F)cc12 [2-011] | 2 (Herbicidal rate of 20% or more and less than 40%) | 3 (Herbicidal rate of 40% or more and less than 70%) | 5 (Herbicidal rate of 90% or more (almost completely withered)) | 5 (Herbicidal rate of 90% or more (almost completely withered)) | 4 (Herbicidal rate of 70% or more and less than 90%) | 5 (Herbicidal rate of 90% or more (almost completely withered)) | 4 (Herbicidal rate of 70% or more and less than 90%) | 3 (Herbicidal rate of 40% or more and less than 70%) | 3 (Herbicidal rate of 40% or more and less than 70%) | 0 (Herbicidal rate of 5% or less (almost no effect)) | 5 (Herbicidal rate of 90% or more (almost completely withered)) | 5 (Herbicidal rate of 90% or more (almost completely withered)) | 3 (Herbicidal rate of 40% or more and less than 70%) | 5 (Herbicidal rate of 90% or more (almost completely withered))
CCCC(=O)Oc1c(C)nn(C)c(=O)c1-c1c(-c2ccc(CC)cc2)sc2ccc(F)cc12 [2-016] | 1 (Herbicidal rate of 5% or more and less than 20%) | 5 (Herbicidal rate of 90% or more (almost completely withered)) | 0 (Herbicidal rate of 5% or less (almost no effect)) | 3 (Herbicidal rate of 40% or more and less than 70%) | 4 (Herbicidal rate of 70% or more and less than 90%) | 3 (Herbicidal rate of 40% or more and less than 70%) | 0 (Herbicidal rate of 5% or less (almost no effect)) | 4 (Herbicidal rate of 70% or more and less than 90%) | 4 (Herbicidal rate of 70% or more and less than 90%) | 0 (Herbicidal rate of 5% or less (almost no effect)) | 5 (Herbicidal rate of 90% or more (almost completely withered)) | 5 (Herbicidal rate of 90% or more (almost completely withered)) | 5 (Herbicidal rate of 90% or more (almost completely withered)) | 5 (Herbicidal rate of 90% or more (almost completely withered))
C=Cc1ccc(-c2sc3ccc(F)cc3c2-c2c(O)c(C)nn(C)c2=O)cc1 [2-018] | 2 (Herbicidal rate of 20% or more and less than 40%) | 0 (Herbicidal rate of 5% or less (almost no effect)) | 5 (Herbicidal rate of 90% or more (almost completely withered)) | 4 (Herbicidal rate of 70% or more and less than 90%) | 4 (Herbicidal rate of 70% or more and less than 90%) | 4 (Herbicidal rate of 70% or more and less than 90%) | 1 (Herbicidal rate of 5% or more and less than 20%) | 2 (Herbicidal rate of 20% or more and less than 40%) | 3 (Herbicidal rate of 40% or more and less than 70%) | 0 (Herbicidal rate of 5% or less (almost no effect)) | 5 (Herbicidal rate of 90% or more (almost completely withered)) | 5 (Herbicidal rate of 90% or more (almost completely withered)) | 0 (Herbicidal rate of 5% or less (almost no effect)) | 5 (Herbicidal rate of 90% or more (almost completely withered))
COCc1ccc(-c2sc3ccc(F)cc3c2-c2c(O)c(C)nn(C)c2=O)cc1 [2-022] | 5 (Herbicidal rate of 90% or more (almost completely withered)) | 5 (Herbicidal rate of 90% or more (almost completely withered)) | 5 (Herbicidal rate of 90% or more (almost completely withered)) | 5 (Herbicidal rate of 90% or more (almost completely withered)) | 5 (Herbicidal rate of 90% or more (almost completely withered)) | 5 (Herbicidal rate of 90% or more (almost completely withered)) | 5 (Herbicidal rate of 90% or more (almost completely withered)) | 2 (Herbicidal rate of 20% or more and less than 40%) | 4 (Herbicidal rate of 70% or more and less than 90%) | 0 (Herbicidal rate of 5% or less (almost no effect)) | 4 (Herbicidal rate of 70% or more and less than 90%) | 5 (Herbicidal rate of 90% or more (almost completely withered)) | 2 (Herbicidal rate of 20% or more and less than 40%) | 5 (Herbicidal rate of 90% or more (almost completely withered))
CCCC(=O)Oc1c(C)nn(C)c(=O)c1-c1c(-c2ccc(COC)cc2)sc2ccc(F)cc12 [2-023] | 0 (Herbicidal rate of 5% or less (almost no effect)) | 0 (Herbicidal rate of 5% or less (almost no effect)) | 5 (Herbicidal rate of 90% or more (almost completely withered)) | 5 (Herbicidal rate of 90% or more (almost completely withered)) | 5 (Herbicidal rate of 90% or more (almost completely withered)) | 4 (Herbicidal rate of 70% or more and less than 90%) | 5 (Herbicidal rate of 90% or more (almost completely withered)) | 0 (Herbicidal rate of 5% or less (almost no effect)) | 0 (Herbicidal rate of 5% or less (almost no effect)) | 0 (Herbicidal rate of 5% or less (almost no effect)) | 5 (Herbicidal rate of 90% or more (almost completely withered)) | 5 (Herbicidal rate of 90% or more (almost completely withered)) | 2 (Herbicidal rate of 20% or more and less than 40%) | 5 (Herbicidal rate of 90% or more (almost completely withered))
